From PubChem BioAssay AID248 (DTP/NCI, 2004)
Inconclusive results and toxic doses are left out. No stated cut-off is given here; in the data, active means T/C of 150% or more; inactive means T/C below 125%.

Tested on: L1210 leukemia ip in BDF1 mice, survival T/C
Test: NCI In Vivo Anticancer Drug Screen. Data for tumor model L1210 Leukemia (intraperitoneal) in B6D2F1 (BDF1) mice
Conditions: endpoint: mean survival time, higher = longer survival
How it was run: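 Ratio derived from survival: compound-dosed mice over vehicle-dosed mice, all bearing a transplantable tumor.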

[1] = dose: 100.0 mg/kg/injection, schedule: Q01DX001 (ip), vehicle: saline
[2] = dose: 100.0 mg/kg/injection, schedule: Q01DX009 (ip), vehicle: Klucel (hydroxypropylcellulose) (HPC)
[3] = dose: 100.0 mg/kg/injection, schedule: Q04DX003 (ip), vehicle: Klucel (hydroxypropylcellulose) (HPC)
[4] = dose: 200.0 mg/kg/injection, schedule: Q01DX001 (ip), vehicle: saline
[5] = dose: 200.0 mg/kg/injection, schedule: Q01DX009 (ip), vehicle: Klucel (hydroxypropylcellulose) (HPC)
[6] = dose: 200.0 mg/kg/injection, schedule: Q04DX003 (ip), vehicle: Klucel (hydroxypropylcellulose) (HPC)
[7] = dose: 400.0 mg/kg/injection, schedule: Q01DX001 (ip), vehicle: saline
[8] = dose: 400.0 mg/kg/injection, schedule: Q04DX003 (ip), vehicle: Klucel (hydroxypropylcellulose) (HPC)
[9] = dose: 100.0 mg/kg/injection, schedule: Q04DX003 (ip), vehicle: saline
[10] = dose: 50.0 mg/kg/injection, schedule: Q01DX009 (ip), vehicle: Klucel (hydroxypropylcellulose) (HPC)
[11] = dose: 25.0 mg/kg/injection, schedule: Q01DX009 (ip), vehicle: Klucel (hydroxypropylcellulose) (HPC)
[12] = dose: 6.25 mg/kg/injection, schedule: Q01DX009 (ip), vehicle: Klucel (hydroxypropylcellulose) (HPC)
[13] = dose: 100.0 mg/kg/injection, schedule: Q04DX003 (ip), vehicle: saline with Tween-80
[14] = dose: 200.0 mg/kg/injection, schedule: Q04DX003 (ip), vehicle: saline with Tween-80
[15] = dose: 400.0 mg/kg/injection, schedule: Q04DX003 (ip), vehicle: saline with Tween-80
[16] = dose: 100.0 mg/kg/injection, schedule: Q01DX009 (ip), vehicle: saline with Tween-80
[17] = dose: 200.0 mg/kg/injection, schedule: Q01DX009 (ip), vehicle: saline with Tween-80

Measured: T/C

CC(Br)CNC(=O)c1ccc([N+](=O)[O-])cc1 (stereo not drawn)
inactive: dose: 75.0 mg/kg/injection, schedule: Q01DX009 (ip), vehicle: Klucel (hydroxypropylcellulose) (HPC) 107 % of control | dose: 150.0 mg/kg/injection, schedule: Q01DX009 (ip), vehicle: Klucel (hydroxypropylcellulose) (HPC) 97 % of control | dose: 300.0 mg/kg/injection, schedule: Q01DX009 (ip), vehicle: Klucel (hydroxypropylcellulose) (HPC) 101 % of control

CC(=O)Oc1ccc(CC(C(=O)O)c2ccccc2)cc1 (stereo not drawn)
inactive: [1] 107 % of control | [2] 91 % of control | [3] 100 % of control | [4] 101 % of control | [5] 109 % of control | [6] 96 % of control | [7] 113 % of control | dose: 400.0 mg/kg/injection, schedule: Q01DX009 (ip), vehicle: Klucel (hydroxypropylcellulose) (HPC) 95 % of control | [8] 96 % of control

COC(=O)CCC(NC(=O)C1CCN(C(=O)OCc2ccccc2)CC1)C(=O)OC (stereo not drawn)
inactive: [1] 99 % of control | dose: 100.0 mg/kg/injection, schedule: Q01DX009 (ip), vehicle: saline 103 % of control | dose: 100.0 mg/kg/injection, schedule: Q04DX003 (ip), vehicle: acetone 95 % of control | [4] 100 % of control | dose: 200.0 mg/kg/injection, schedule: Q01DX009 (ip), vehicle: saline 102 % of control | dose: 200.0 mg/kg/injection, schedule: Q04DX003 (ip), vehicle: acetone 98 % of control | [7] 94 % of control | dose: 400.0 mg/kg/injection, schedule: Q01DX009 (ip), vehicle: saline 103 % of control | dose: 400.0 mg/kg/injection, schedule: Q04DX003 (ip), vehicle: acetone 98 % of control

CCSCN1CCN(CSCC)CC1
inactive: [1] 98 % of control | [4] 104 % of control

CCCCCCCCc1ccc(C(=O)O)cc1
inactive: [3] 105 % of control | [6] 101 % of control | [8] 91 % of control

CCN(CC)CCOc1cc(C)cc2ccccc12
inactive: dose: 12.5 mg/kg/injection, schedule: Q04DX003 (ip), vehicle: saline 87 % of control | dose: 25.0 mg/kg/injection, schedule: Q04DX003 (ip), vehicle: saline 98 % of control | dose: 50.0 mg/kg/injection, schedule: Q04DX003 (ip), vehicle: saline 101 % of control | [9] 104 % of control

CC(C)CC(CC(C)C)NCCOC(=O)c1ccc(N)cc1
inactive: dose: 75.0 mg/kg/injection, schedule: Q01DX001 (ip), vehicle: other 106 % of control | dose: 150.0 mg/kg/injection, schedule: Q01DX001 (ip), vehicle: other 103 % of control

C=CC[n+]1ccccc1C(c1ccccc1)c1ccccc1
inactive: dose: 6.25 mg/kg/injection, schedule: Q01DX009 (ip), vehicle: saline with Tween-80 108 % of control | dose: 12.5 mg/kg/injection, schedule: Q01DX009 (ip), vehicle: saline with Tween-80 97 % of control | dose: 12.5 mg/kg/injection, schedule: Q04DX003 (ip), vehicle: saline with Tween-80 95 % of control | dose: 25.0 mg/kg/injection, schedule: Q01DX009 (ip), vehicle: saline with Tween-80 92 % of control | dose: 25.0 mg/kg/injection, schedule: Q04DX003 (ip), vehicle: saline with Tween-80 103 % of control

Cc1ccc(NC(=O)OCCN2CCNC2=S)c([N+](=O)[O-])c1
inactive: [10] 95 % of control | [2] 87 % of control | [3] 93 % of control | [5] 91 % of control | [6] 91 % of control | [8] 96 % of control

CCCCCCCNC(=O)OCC
inactive: dose: 55.0 mg/kg/injection, schedule: Q01DX Z (ip), vehicle: methylcellulose (MC) 93 % of control | dose: 83.0 mg/kg/injection, schedule: Q01DX Z (ip), vehicle: methylcellulose (MC) 93 % of control | dose: 125.0 mg/kg/injection, schedule: Q01DX Z (ip), vehicle: methylcellulose (MC) 104 % of control

O=C(CI)Nc1ccc(Cl)c(Cl)c1
inactive: [11] 95 % of control | [10] 94 % of control | [2] 93 % of control

Oc1ccccc1C=NCC[N-]CCN=Cc1ccccc1O.[Cu+]
inactive: dose: 1.56 mg/kg/injection, schedule: Q01DX009 (ip), vehicle: Klucel (hydroxypropylcellulose) (HPC) 91 % of control | dose: 1.56 mg/kg/injection, schedule: Q04DX003 (ip), vehicle: Klucel (hydroxypropylcellulose) (HPC) 95 % of control | dose: 3.13 mg/kg/injection, schedule: Q01DX009 (ip), vehicle: Klucel (hydroxypropylcellulose) (HPC) 94 % of control | dose: 3.13 mg/kg/injection, schedule: Q04DX003 (ip), vehicle: Klucel (hydroxypropylcellulose) (HPC) 93 % of control | [12] 94 % of control | dose: 6.25 mg/kg/injection, schedule: Q04DX003 (ip), vehicle: Klucel (hydroxypropylcellulose) (HPC) 97 % of control

C=CC(C)(C)CCCC
inactive: [9] 104 % of control | dose: 200.0 mg/kg/injection, schedule: Q04DX003 (ip), vehicle: saline 101 % of control | dose: 400.0 mg/kg/injection, schedule: Q04DX003 (ip), vehicle: saline 110 % of control

O=Cc1cc([N+](=O)[O-])ccc1OCC(=O)O
inactive: [13] 103 % of control | [14] 92 % of control | [15] 93 % of control

CCCCCCCCCCCCCCCCCC(CC)c1ccccc1 (stereo not drawn)
inactive: dose: 100.0 mg/kg/injection, schedule: Q01DX001 (ip), vehicle: saline with Tween-80 104 % of control | dose: 200.0 mg/kg/injection, schedule: Q01DX001 (ip), vehicle: saline with Tween-80 94 % of control | dose: 400.0 mg/kg/injection, schedule: Q01DX001 (ip), vehicle: saline with Tween-80 94 % of control

CC(=O)N1C(=O)N(Cl)C(=O)C1(c1ccc(Cl)cc1)c1ccc(Cl)cc1
inactive: [16] 108 % of control | [13] 92 % of control | [17] 104 % of control | [14] 100 % of control | dose: 400.0 mg/kg/injection, schedule: Q01DX009 (ip), vehicle: saline with Tween-80 102 % of control | [15] 98 % of control

Clc1nc2nc(C(Cl)(Cl)Cl)[nH]c2nc1Cl
inactive: [12] 103 % of control | dose: 12.5 mg/kg/injection, schedule: Q01DX009 (ip), vehicle: Klucel (hydroxypropylcellulose) (HPC) 102 % of control | [11] 115 % of control | [10] 105 % of control | [3] 97 % of control | [6] 100 % of control

CCOC(=O)CCc1c(COC(C)=O)[nH]c(C(=O)OCC)c1C
inactive: dose: 50.0 mg/kg/injection, schedule: Q01DX001 (ip), vehicle: Klucel (hydroxypropylcellulose) (HPC) 100 % of control | dose: 100.0 mg/kg/injection, schedule: Q01DX001 (ip), vehicle: Klucel (hydroxypropylcellulose) (HPC) 92 % of control | dose: 200.0 mg/kg/injection, schedule: Q01DX001 (ip), vehicle: Klucel (hydroxypropylcellulose) (HPC) 90 % of control

CS(=O)(=O)OCCCCO
inactive: dose: 50.0 mg/kg/injection, schedule: Q01DX001 (ip), vehicle: carboxymethylcellulose (CMC) 88 % of control | dose: 100.0 mg/kg/injection, schedule: Q01DX001 (ip), vehicle: carboxymethylcellulose (CMC) 93 % of control | dose: 200.0 mg/kg/injection, schedule: Q01DX001 (ip), vehicle: carboxymethylcellulose (CMC) 93 % of control | dose: 400.0 mg/kg/injection, schedule: Q01DX001 (ip), vehicle: carboxymethylcellulose (CMC) 90 % of control

O=C1c2ccccc2C(=O)N1CNc1cccc(Cl)c1
inactive: [16] 88 % of control | dose: 100.0 mg/kg/injection, schedule: Q04DX002 (ip), vehicle: saline with Tween-80 102 % of control | [17] 91 % of control | dose: 200.0 mg/kg/injection, schedule: Q04DX002 (ip), vehicle: saline with Tween-80 105 % of control | dose: 400.0 mg/kg/injection, schedule: Q04DX002 (ip), vehicle: saline with Tween-80 97 % of control
